# Measured values reported in ChEMBL document CHEMBL4483862, “Open-source discovery of chemical leads for next-generation chemoprotective antimalarials” (2018).
# pIC50: −log10 of the molar value.
# Tested on: Plasmodium berghei
# Assay: Luciferase/luciferin-expressing antifolate-resistant parasites were used to infect a culture of HepG2 cells that were pre-incubated with compounds. Infected hepatocytes emit light due to the luciferase reaction. Assay results are presented as the percent inhibition of light emission compared to control. […]
# Assay type: functional
# Settings: sporozoite; for IC90: read-out: LUCIFERASE INFECTION ASSAY - IC90
# [1] = read-out: LUCIFERASE INFECTION ASSAY - IC50
compound,measurement,setting,value
O=C(c1cc(F)cc(F)c1)N1[C@@H]2CC[C@@H](C2)[C@H]1c1nc2c(OCCC3CCCCC3)cccc2[nH]1,pIC50,"FFLUC_HILL_SLOPE 146, FFLUC_R_SQUARED 0.488, HEPG2TOX_HILL_SLOPE 10.5, HEPG2TOX_R_SQUARED 0.576, PBLUC_HILL_SLOPE 12.2, PBLUC_R_SQUARED 0.352, read-out: LUCIFERASE INFECTION ASSAY - IC50",5.02
same,IC90,,> 10 µM
COc1cccc(CC(=O)Nc2nc3ccc(C)cn3c2C(=O)NC2CCCC2)c1,pIC50,[1],< 5.09
same,IC90,,> 8.12 µM
COC(=O)c1cc(CSc2nnc(-c3ccc(C)cc3)c(-c3ccc(C)cc3)n2)oc1C,pIC50,"FFLUC_HILL_SLOPE 4.52, FFLUC_R_SQUARED 0.588, read-out: LUCIFERASE INFECTION ASSAY - IC50",< 5.00
same,IC90,,> 10 µM
Cn1ccc2cc(-c3cnc4cnc(-c5ccc(C(=O)NCCO)cc5)cn34)ccc21,pIC50,[1],5.21
same,IC90,,7.65 µM
CC1(C)CC(=O)C2Sc3ccccc3N=C2C1 (stereo not drawn),pIC50,"PBLUC_HILL_SLOPE 1.5, PBLUC_R_SQUARED 0.224, read-out: LUCIFERASE INFECTION ASSAY - IC50",4.97
same,IC90,,> 13.5 µM
CC(C)N(C(=O)CSc1nnc(-c2cccc(S(=O)(=O)N3CCOCC3)c2)n1-c1ccc(F)cc1)c1ccccc1,pIC50,[1],< 5.00
same,IC90,,> 10 µM
Cn1c(=O)c2cc3cc(Cl)ccc3nc2c2c(=O)n(-c3ccccc3)c(=O)n(-c3ccccc3)c21,pIC50,"HEPG2TOX_HILL_SLOPE 9.44, HEPG2TOX_R_SQUARED 0.957, PBLUC_HILL_SLOPE 32.7, PBLUC_R_SQUARED 0.0582, read-out: LUCIFERASE INFECTION ASSAY - IC50",5.16
same,IC90,,> 6.86 µM
CCCn1nc(C(=O)Nc2cccc(-c3nc4ccccc4[nH]3)c2)c2ccccc2c1=O,pIC50,"PBLUC_HILL_SLOPE 9.6, PBLUC_R_SQUARED 0.205, read-out: LUCIFERASE INFECTION ASSAY - IC50",5.43
same,IC90,,4.7 µM
COc1cc(NC(=O)N2Cc3cnc(Nc4ccc(OCc5ccccc5)cc4)nc3C2)cc(OC)c1OC,pIC50,[1],< 5.20
same,IC90,,> 6.25 µM
O=C(NCc1ccc(-n2cccn2)cc1)c1[nH]nc(C2CC2)c1Br,pIC50,[1],5.90
same,IC90,,1.52 µM
Cc1ccc(C(=O)Cn2c(=O)n(C3CCCCC3)c(=O)c3ccccc32)cc1,pIC50,"FFLUC_HILL_SLOPE 15.7, FFLUC_R_SQUARED 0.382, PBLUC_HILL_SLOPE 31.1, PBLUC_R_SQUARED 0.0716, read-out: LUCIFERASE INFECTION ASSAY - IC50",< 5.06
same,IC90,,> 8.77 µM
CC(=O)Nc1ccc(-c2cnc3ccc(-c4cccc(Oc5ccccc5)c4)nn23)cc1,pIC50,"HEPG2TOX_HILL_SLOPE 2.48, HEPG2TOX_R_SQUARED 0.914, PBLUC_HILL_SLOPE 2.88, PBLUC_R_SQUARED 0.663, read-out: LUCIFERASE INFECTION ASSAY - IC50",5.81
same,IC90,,3.35 µM
C=CCn1c2ccccc2n2nc(C)c(C(=O)/C=C/c3ccccn3)c12,pIC50,"PBLUC_HILL_SLOPE 13.1, PBLUC_R_SQUARED 0.157, read-out: LUCIFERASE INFECTION ASSAY - IC50",5.47
same,IC90,,4.04 µM
Fc1ccccc1-n1cnnc1SC(c1ccccc1)c1ccccc1,pIC50,"PBLUC_HILL_SLOPE 1.8, PBLUC_R_SQUARED 0.792, read-out: LUCIFERASE INFECTION ASSAY - IC50",6.24
same,IC90,,1.93 µM
CNc1snc(C)c1C(=O)OCc1cc(C(=O)OC)c(C)o1,pIC50,"HEPG2TOX_HILL_SLOPE 0.962, HEPG2TOX_R_SQUARED 0.934, PBLUC_HILL_SLOPE 25, PBLUC_R_SQUARED 0.565, read-out: LUCIFERASE INFECTION ASSAY - IC50",5.66
same,IC90,,2.41 µM
CC(C)(C)c1ccc(OCc2nc(=O)cc(Nc3ccccc3Cl)[nH]2)cc1,pIC50,"FFLUC_HILL_SLOPE 11.4, FFLUC_R_SQUARED 0.169, HEPG2TOX_HILL_SLOPE 0.949, HEPG2TOX_R_SQUARED 0.863, read-out: LUCIFERASE INFECTION ASSAY - IC50",< 5.07
same,IC90,,> 8.6 µM
CS(=O)(=O)c1ccccc1NC(=O)COC(=O)c1cccnc1N,pIC50,"FFLUC_HILL_SLOPE 0.757, FFLUC_R_SQUARED 0.634, read-out: LUCIFERASE INFECTION ASSAY - IC50",< 5.00
same,IC90,,> 10 µM
COc1ccc(-c2nn(-c3ccccc3)cc2CN(Cc2ccccc2)C(=O)c2ccco2)cc1,pIC50,[1],< 5.00
same,IC90,,> 10 µM
CNC(=O)c1sc2scc(C)c2c1C,pIC50,[1],< 4.84
same,IC90,,> 14.6 µM
Fc1ccc(-c2c[n+](-c3ccccc3)c3n2CCCS3)cc1,pIC50,[1],< 5.00
same,IC90,,> 10 µM
Cc1ccc(C(CCNCc2cccs2)c2ccco2)cc1 (stereo not drawn),pIC50,[1],5.71
same,IC90,,2.72 µM
CCC(C)NC(=O)c1c(NC(=O)C(C)Oc2ccccc2)nc2ccc(C)cn12 (stereo not drawn),pIC50,"PBLUC_HILL_SLOPE 12.7, PBLUC_R_SQUARED 0.125, read-out: LUCIFERASE INFECTION ASSAY - IC50",5.10
same,IC90,,> 8.37 µM
CC(=O)N(c1nc(/C=C/C(=O)c2cccc(Br)c2)cs1)c1ccc(F)cc1F,pIC50,"PBLUC_HILL_SLOPE 1.24, PBLUC_R_SQUARED 0.477, read-out: LUCIFERASE INFECTION ASSAY - IC50",5.05
same,IC90,,> 10 µM
COc1ccc(Cl)cc1NC(=O)C(C)N1CCC(c2c[nH]c3ccccc23)CC1 (stereo not drawn),pIC50,"FFLUC_HILL_SLOPE 15.4, FFLUC_R_SQUARED 0.69, PBLUC_HILL_SLOPE 100, PBLUC_R_SQUARED 0.101, read-out: LUCIFERASE INFECTION ASSAY - IC50",5.33
same,IC90,,4.83 µM
NC(Cc1ccc(F)cc1)c1csc(Nc2ccc(-c3ccccc3)nn2)n1 (stereo not drawn),pIC50,"PBLUC_HILL_SLOPE 14.8, PBLUC_R_SQUARED 0.059, read-out: LUCIFERASE INFECTION ASSAY - IC50",5.08
same,IC90,,> 8.43 µM
CCOc1ccc(/C=C/c2ccc3c(Cl)cc(Cl)c(O)c3n2)cc1OC,pIC50,"HEPG2TOX_HILL_SLOPE 1.14, HEPG2TOX_R_SQUARED 0.782, PBLUC_HILL_SLOPE 2.47, PBLUC_R_SQUARED 0.699, read-out: LUCIFERASE INFECTION ASSAY - IC50",5.34
same,IC90,,> 10 µM
Cc1c(C)n(CCN(C)C)c2ncn3nc(-c4ccccc4O)nc3c12,pIC50,"PBLUC_HILL_SLOPE 1.46, PBLUC_R_SQUARED 0.808, read-out: LUCIFERASE INFECTION ASSAY - IC50",5.66
same,IC90,,> 9.42 µM
CN(CC(=O)Nc1ccc(N2CCOCC2)cc1)Cn1nc(-c2cccs2)n(CC2CCCO2)c1=S (stereo not drawn),pIC50,[1],< 5.00
same,IC90,,> 10 µM
CCS(=O)(=O)c1ncc(Cl)c(C(=O)Nc2cc(Cl)cc(Cl)c2)n1,pIC50,"HEPG2TOX_HILL_SLOPE 4.63, HEPG2TOX_R_SQUARED 0.595, PBLUC_HILL_SLOPE 15.4, PBLUC_R_SQUARED 0.531, read-out: LUCIFERASE INFECTION ASSAY - IC50",5.56
same,IC90,,3.19 µM
Cc1nn(Cc2ccccc2)c(Cl)c1C(=O)OC(C)C(=O)N1CCN(Cc2ccccc2)CC1 (stereo not drawn),pIC50,"HEPG2TOX_HILL_SLOPE 0.446, HEPG2TOX_R_SQUARED 0.649, read-out: LUCIFERASE INFECTION ASSAY - IC50",< 5.00
same,IC90,,> 10 µM
O=C(Cn1cnc2c(cnn2-c2ccccc2[N+](=O)[O-])c1=O)Nc1ccc(OCc2ccccc2)cc1,pIC50,"PBLUC_HILL_SLOPE 3.88, PBLUC_R_SQUARED 0.658, read-out: LUCIFERASE INFECTION ASSAY - IC50",5.13
same,IC90,,> 10 µM
Cc1ccc2nc(-c3ccc(NC(=O)COC(=O)c4oc5ccccc5c4COC(C)C)cc3)sc2c1,pIC50,"FFLUC_HILL_SLOPE 11.7, FFLUC_R_SQUARED 0.82, PBLUC_HILL_SLOPE 2.16, PBLUC_R_SQUARED 0.259, read-out: LUCIFERASE INFECTION ASSAY - IC50",5.04
same,IC90,,> 10 µM
COCCNc1ccnc2c(-c3ccccc3Oc3ccccc3)cnn12,pIC50,"FFLUC_HILL_SLOPE 3.47, FFLUC_R_SQUARED 0.0365, PBLUC_HILL_SLOPE 0.975, PBLUC_R_SQUARED 0.706, read-out: LUCIFERASE INFECTION ASSAY - IC50",5.41
same,IC90,,> 9.16 µM
CC(C)n1cc(-c2nc(C(=O)NNC(=O)c3ccccc3Cl)cs2)c(=O)n(Cc2ccccc2)c1=O,pIC50,[1],< 5.20
same,IC90,,> 6.3 µM
CC(=O)c1ccc(C#Cc2ccccc2)s1,pIC50,[1],< 4.84
same,IC90,,> 14.6 µM
Cc1nc(Sc2ncnc3sc4c(c23)CCC4)sc1CC(N)=O,pIC50,"PBLUC_HILL_SLOPE 51.2, PBLUC_R_SQUARED 0.477, read-out: LUCIFERASE INFECTION ASSAY - IC50",5.73
same,IC90,,1.96 µM
CC(=O)c1c(C)[n+]([O-])c2ccccc2[n+]1[O-] [MEQUINDOX],pIC50,"FFLUC_HILL_SLOPE 0.566, FFLUC_R_SQUARED 0.11, read-out: LUCIFERASE INFECTION ASSAY - IC50",< 4.82
same,IC90,,> 15.1 µM
O=C(Nc1ccccc1)c1cn(-c2ccc3c(c2)OCCO3)nn1,pIC50,"FFLUC_HILL_SLOPE 1.49, FFLUC_R_SQUARED 0.912, PBLUC_HILL_SLOPE 0.315, PBLUC_R_SQUARED 0.673, read-out: LUCIFERASE INFECTION ASSAY - IC50",8.25
same,IC90,,5.96 µM
N#Cc1ccccc1S(=O)(=O)Oc1ccccc1C(F)(F)F,pIC50,[1],< 5.00
same,IC90,,> 10 µM
O=C(COC(=O)c1ccc(-n2ncc(Cl)c(Cl)c2=O)cc1)Nc1ccc(F)cc1,pIC50,[1],< 5.00
same,IC90,,> 10 µM
CCOc1cc(N2CCOCC2)c(OCC)cc1NC(=O)COc1ccc(-c2nnco2)cc1,pIC50,[1],< 5.00
same,IC90,,> 10 µM
CCc1ccc(NC(=O)CN(c2cccc3ccccc23)S(=O)(=O)c2ccc(C)c(C)c2)cc1,pIC50,"FFLUC_HILL_SLOPE 1.69, FFLUC_R_SQUARED 0.486, read-out: LUCIFERASE INFECTION ASSAY - IC50",< 5.00
same,IC90,,> 10 µM
COc1ccc(-n2nc(C)c3c(=O)cc(C(C)(C)C)[nH]c32)cc1,pIC50,"HEPG2TOX_HILL_SLOPE 1.9, HEPG2TOX_R_SQUARED 0.976, PBLUC_HILL_SLOPE 7.24, PBLUC_R_SQUARED 0.294, read-out: LUCIFERASE INFECTION ASSAY - IC50",5.37
same,IC90,,5.81 µM
CC(C)=CC(=O)Nc1scc(-c2ccccc2)c1C(=O)OCC(=O)Nc1cc(C)on1,pIC50,[1],< 5.00
same,IC90,,> 10 µM
